Reference: PubChem BioAssay AID1963984 (Molecular Pharmacology Branch, DTP, NCI, 2024)
pIC50: −log10 of the molar value.

Test system: 233499-124-R-J3-PDC spheroids with HUVEC/MSC, viability
Test: Anticancer human tumor 233499-124-R-J3-PDC patient-derived colon adenocarcinoma cell line growth inhibition [PI3K]
Conditions: for pIC50: curve of first compound; for viability, T/C: stronger effect = lower value
Text: Combinatorial screen of targeted agents with the PI3K inhibitors inavolisib, alpelisib, duvelisib, and copanlisib in multi-cell type tumor spheroids
A high-throughput screen of multi-cell type tumor spheroids was designed to identify active combinations of targeted small molecules and PI3K pathway inhibitors. Complex spheroids include a stromal component modeled by human endothelial cells (HUVEC) and fibroblasts modeled by human mesenchymal stem cells (MSCs). The concentration ranges selected for each drug and investigational agent were based upon clinically achievable concentrations if the clinical Cmax of the agent was known.
Compounds. The drugs and investigational agents: inavolisib (NSC800729), alpelisib (NSC765974), duvelisib (NSC772469), copanlisib (NSC816437), ipatasertib (NSC767898), afuresertib (NSC778305), talazoparib (NSC767125), sapanisertib (NSC764658), selumetinib (NSC741078), tovorafenib (DAY101, NSC766906), vemurafenib (NSC761431), ravoxertinib (NSC781343), sotorasib (NSC818433), MRTX1133 (NSC 836407), abemaciclib (NSC 768073), palbociclib (NSC758247), venetoclax (NSC 766270), SY5609 (NSC837396), enzalutamide (NSC755605), and darolutamide (NSC825331), were obtained from the National Cancer Institute (NCI) Developmental Therapeutics Program Chemical Repository. The FDA-approved anticancer drug set is available from the NCI Developmental Therapeutics Program. […] The stock solutions were prepared in dimethyl sulfoxide (DMSO, Sigma-Aldrich, St. Louis, MO, cat. D2650) at 800-fold the tested concentration and stored at -70 degrees C prior to their use. All drugs and investigational agents were tested over a range starting from a high concentration at or near the clinical Cmax and decreasing in half-log increments. If the clinical Cmax for an agent had not been determined, the highest concentration tested was 10 microM.
Cell Culture. All cells were maintained in an incubator at 37 degrees C and 5% CO2 with 95% humidity. The PDC lines were cultured according to standard operating procedures established by the NCI PDMR (https://pdmr.cancer.gov/sops/default.htm). All PDCs were thawed and cultured in Matrigel-coated flasks prepared with a working solution of 1X Ham's F-12 nutrient mix, without supplementation (Invitrogen, Waltham, MA, cat. 11765054), 100 U/mL penicillin-streptomycin (Invitrogen, cat. 15140122), and 2.5% Matrigel (Corning Inc., Corning, NY, cat. 354248) for the first three passages. The 354836-022-R-J1-PDC, 475296-252-R-J1-PDC, and 997726-040-R-J2-PDC lines were cultured in 6A media, which includes advanced DMEM/F-12 (Thermo Fisher Scientific, cat. 12634028), 10 mM HEPES (Thermo Fisher Scientific, cat. 15630080), 1X GlutaMAX supplement (Thermo Fisher Scientific, cat. 35050061), 0.1 mg/mL primocin (InvivoGen, San Diego, CA, cat. ant-pm-2), 10% defined fetal bovine serum, heat inactivated (HyClone Laboratories Inc., Logan, UT, cat. SH30070.03HI), 50% L-WRN conditioned media (ATCC, cat. CRL-3276), 1.25 mM N-Acetyl-L-cysteine (Sigma-Aldrich, cat. A9165), 10 mM nicotinamide (Sigma-Aldrich, cat. N0636), 1X B-27 supplement (Thermo Fisher Scientific, cat. 17504044), 1X N-2 supplement (Thermo Fisher Scientific, cat. 17502048), and 10 microM Y-27632 dihydrochloride (Tocris Bioscience, Bristol, United Kingdom, cat. 1254). The 624824-186-R-J2-PDC line was cultured in 6C/Colon 1B media, which includes all 6A media components plus 50 ng/mL human EGF recombinant protein (Thermo Fisher Scientific, cat. PHG0311). […]

[1] = second compound 0.00316 µM, first compound 0.0316 µM
[2] = second compound 0.00316 µM, first compound 0.1 µM
[3] = second compound 0.00316 µM, first compound 0.316 µM
[4] = second compound 0.00316 µM, first compound 1 µM
[5] = second compound 0.00316 µM, first compound 3.16 µM
[6] = second compound 0.00316 µM, first compound 10 µM
[7] = second compound 0.01 µM, first compound 0.0316 µM
[8] = second compound 0.01 µM, first compound 0.1 µM
[9] = second compound 0.01 µM, first compound 0.316 µM
[10] = second compound 0.01 µM, first compound 1 µM
[11] = second compound 0.01 µM, first compound 3.16 µM
[12] = second compound 0.01 µM, first compound 10 µM
[13] = second compound 0.0316 µM, first compound 0.0316 µM
[14] = second compound 0.0316 µM, first compound 0.1 µM
[15] = second compound 0.0316 µM, first compound 0.316 µM
[16] = second compound 0.0316 µM, first compound 1 µM
[17] = second compound 0.0316 µM, first compound 3.16 µM
[18] = second compound 0.0316 µM, first compound 10 µM
[19] = second compound 0.1 µM, first compound 0.0316 µM
[20] = second compound 0.1 µM, first compound 0.1 µM
[21] = second compound 0.1 µM, first compound 0.316 µM
[22] = second compound 0.1 µM, first compound 1 µM
[23] = second compound 0.1 µM, first compound 3.16 µM
[24] = second compound 0.1 µM, first compound 10 µM
[25] = second compound 0.316 µM, first compound 0.0316 µM
[26] = second compound 0.316 µM, first compound 0.1 µM
[27] = second compound 0.316 µM, first compound 0.316 µM
[28] = second compound 0.316 µM, first compound 1 µM
[29] = second compound 0.316 µM, first compound 3.16 µM
[30] = second compound 0.316 µM, first compound 10 µM
[31] = second compound 1 µM, first compound 0.0316 µM
[32] = second compound 1 µM, first compound 0.1 µM
[33] = second compound 1 µM, first compound 0.316 µM
[34] = second compound 1 µM, first compound 1 µM
[35] = second compound 1 µM, first compound 3.16 µM
[36] = second compound 1 µM, first compound 10 µM
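Note: spheroids exposed to agents for seven days before readout.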
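Throughout, for viability, T/C: percent viability relative to DMSO vehicle control taken as 100%.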

`Cn1nccc1Nc1nccc(-c2ccn(C(CO)c3ccc(Cl)c(F)c3)c(=O)c2)n1` (centres undefined) + CC(Nc1ccc2c(c1)OCCn1cc(N3C(=O)OCC3C(F)F)nc1-2)C(N)=O showed a pIC50 (second compound 0.00316 µM) of under 5.00, a pIC50 (second compound 0.01 µM) of 5.01 and a pIC50 (second compound 0.0316 µM) of under 5.00. For the same compound, the pIC50 (second compound 0.1 µM) was under 5.00, the pIC50 (second compound 0.316 µM) was 6.16 and the pIC50 (second compound 1 µM) was 6.68. It also gave a viability, T/C [1] of 81.3%, a viability, T/C [2] of 95.2% and a viability, T/C [3] of 80.5%. The viability, T/C [4] was 104%, the viability, T/C [5] was 52.7% and the viability, T/C [6] was 58.2%. The viability, T/C [7] was 83%, the viability, T/C [8] was 81.6% and the viability, T/C [9] was 74.3%. The viability, T/C [10] was 74.9%, the viability, T/C [11] was 59.5% and the viability, T/C [12] was 50.2%. The viability, T/C [13] was 95.6%, the viability, T/C [14] was 100% and the viability, T/C [15] was 71.8%. For the same compound, the viability, T/C [16] was 55.7%, the viability, T/C [17] was 79.3% and the viability, T/C [18] was 66%. For the same compound, the viability, T/C [19] was 76.3%, the viability, T/C [20] was 77.3% and the viability, T/C [21] was 82.3%. It also gave a viability, T/C [22] of 63.2%, a viability, T/C [23] of 53.1% and a viability, T/C [24] of 48.1%. For the same compound, the viability, T/C [25] was 78.3%, the viability, T/C [26] was 73% and the viability, T/C [27] was 58.6%. For the same compound, the viability, T/C [28] was 45.9%, the viability, T/C [29] was 39.6% and the viability, T/C [30] was 36.3%. For the same compound, the viability, T/C [31] was 55.8%, the viability, T/C [32] was 58.6% and the viability, T/C [33] was 43.5%. It also gave a viability, T/C [34] of 41.6%, a viability, T/C [35] of 38.9% and a viability, T/C [36] of 27.8%.
`CC1(C)CCC(CN2CCN(c3ccc(C(=O)NS(=O)(=O)c4ccc(NCC5CCOCC5)c([N+](=O)[O-])c4)c(Oc4cnc5[nH]ccc5c4)c3)CC2)=C(c2ccc(Cl)cc2)C1` + COc1c(OCCCN2CCOCC2)ccc2c3n(c(=NC(=O)c4cnc(N)nc4)nc12)CCN3 showed a pIC50 (second compound 0.00316 µM) of under 5.00, a pIC50 (second compound 0.01 µM) of under 5.00 and a pIC50 (second compound 0.0316 µM) of under 5.00. It also gave a pIC50 (second compound 0.1 µM) of 5.09, a pIC50 (second compound 0.316 µM) of over 7.50 and a pIC50 (second compound 1 µM) of over 7.50. The viability, T/C [1] was 93.8%, the viability, T/C [2] was 108% and the viability, T/C [3] was 113%. The viability, T/C [4] was 101%, the viability, T/C [5] was 99% and the viability, T/C [6] was 100%. The viability, T/C [7] was 96.7%, the viability, T/C [8] was 104% and the viability, T/C [9] was 92%. The viability, T/C [10] was 108%, the viability, T/C [11] was 101% and the viability, T/C [12] was 93.1%. The viability, T/C [13] was 96.5%, the viability, T/C [14] was 95% and the viability, T/C [15] was 86.4%. The viability, T/C [16] was 78.7%, the viability, T/C [17] was 80.1% and the viability, T/C [18] was 61.2%. The viability, T/C [19] was 60.6%, the viability, T/C [20] was 73.3% and the viability, T/C [21] was 55.5%. The viability, T/C [22] was 62.2%, the viability, T/C [23] was 53.3% and the viability, T/C [24] was 49.5%. The viability, T/C [25] was 19.8%, the viability, T/C [26] was 28.9% and the viability, T/C [27] was 15.3%. The viability, T/C [28] was 40.2%, the viability, T/C [29] was 17.5% and the viability, T/C [30] was 26.6%. The viability, T/C [31] was 7.27%, the viability, T/C [32] was 2.35% and the viability, T/C [33] was 15.9%. The viability, T/C [34] was 13.9%, the viability, T/C [35] was 6.93% and the viability, T/C [36] was 13.2%.
